In PubChem BioAssay (NCI):
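Values below derive from 48-hour exposures of cells grown in 96-well plates, with endpoints linearly interpolated between the two concentrations bracketing the appropriate inhibition level. TGI is the concentration that stops growth completely.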

Key:
Experiment in all cases: DTP human tumour cell line panel, 48 h
BT-549 breast = test system: BT-549 breast
CCRF-CEM leukemia = test system: CCRF-CEM leukemia
SK-OV-3 ovarian = test system: SK-OV-3 ovarian
SR leukemia = test system: SR leukemia
786-0 renal = test system: 786-0 renal
M14 melanoma = test system: M14 melanoma
IGROV1 ovarian = test system: IGROV1 ovarian
OVCAR-5 ovarian = test system: OVCAR-5 ovarian
UO-31 renal = test system: UO-31 renal
NCI-H460 lung = test system: NCI-H460 lung
SK-MEL-28 melanoma = test system: SK-MEL-28 melanoma
HT29 colon = test system: HT29 colon
SK-MEL-5 melanoma = test system: SK-MEL-5 melanoma
UACC-257 melanoma = test system: UACC-257 melanoma
SN12C renal = test system: SN12C renal
U251 CNS = test system: U251 CNS
UACC-62 melanoma = test system: UACC-62 melanoma
MCF7 breast = test system: MCF7 breast
LOX IMVI melanoma = test system: LOX IMVI melanoma

O=c1[nH]c(-n2[nH]c3c(c2=O)CCCC3)nc(O)c1-c1ccccc1
TGI (BT-549 breast): > 100 µM
TGI (CCRF-CEM leukemia): > 100 µM
TGI (SK-OV-3 ovarian): > 100 µM
TGI (SR leukemia): > 100 µM
TGI (786-0 renal): > 100 µM
TGI (M14 melanoma): > 100 µM
TGI (IGROV1 ovarian): > 100 µM
TGI (OVCAR-5 ovarian): > 100 µM
TGI (UO-31 renal): > 100 µM
TGI (NCI-H460 lung): > 100 µM
TGI (SK-MEL-28 melanoma): > 100 µM
TGI (HT29 colon): > 100 µM
TGI (SK-MEL-5 melanoma): > 100 µM
TGI (UACC-257 melanoma): > 100 µM
TGI (SN12C renal): > 100 µM
TGI (U251 CNS): > 100 µM
TGI (UACC-62 melanoma): > 100 µM

Cc1ccc(C)c2c1CC(Cc1ccccc1C(=O)O)C2=O (configuration not stated)
TGI (BT-549 breast): > 100 µM
TGI (CCRF-CEM leukemia): > 100 µM
TGI (SK-OV-3 ovarian): > 100 µM
TGI (MCF7 breast): > 100 µM
TGI (786-0 renal): > 100 µM
TGI (M14 melanoma): > 100 µM
TGI (IGROV1 ovarian): > 100 µM
TGI (OVCAR-5 ovarian): > 100 µM
TGI (UO-31 renal): > 100 µM
TGI (NCI-H460 lung): > 100 µM
TGI (SK-MEL-28 melanoma): > 100 µM
TGI (HT29 colon): > 100 µM
TGI (SK-MEL-5 melanoma): > 100 µM
TGI (UACC-257 melanoma): > 100 µM
TGI (SN12C renal): > 100 µM
TGI (U251 CNS): > 100 µM
TGI (LOX IMVI melanoma): > 100 µM
TGI (UACC-62 melanoma): > 100 µM

CCC1C(=O)C(O)[C@H]2[C@@H]3C(O)CC4=CC(=O)CC[C@]4(C)[C@H]3CC[C@]12C (some centres not stated)
TGI (CCRF-CEM leukemia): > 50 µM
TGI (SK-OV-3 ovarian): > 50 µM
TGI (SR leukemia): > 50 µM
TGI (MCF7 breast): > 50 µM
TGI (786-0 renal): > 50 µM
TGI (M14 melanoma): > 50 µM
TGI (IGROV1 ovarian): > 50 µM
TGI (OVCAR-5 ovarian): > 50 µM
TGI (UO-31 renal): > 50 µM
TGI (NCI-H460 lung): > 50 µM
TGI (SK-MEL-28 melanoma): > 50 µM
TGI (HT29 colon): > 50 µM
TGI (SK-MEL-5 melanoma): > 50 µM
TGI (UACC-257 melanoma): > 50 µM
TGI (SN12C renal): > 50 µM
TGI (U251 CNS): > 50 µM
TGI (LOX IMVI melanoma): > 50 µM
TGI (UACC-62 melanoma): > 50 µM

CN(C)/C=N/NC(=O)/C(C#N)=C/N(C)C
TGI (CCRF-CEM leukemia): > 100 µM
TGI (SK-OV-3 ovarian): > 100 µM
TGI (SR leukemia): > 100 µM
TGI (MCF7 breast): > 100 µM
TGI (786-0 renal): > 100 µM
TGI (M14 melanoma): > 100 µM
TGI (IGROV1 ovarian): > 100 µM
TGI (OVCAR-5 ovarian): > 100 µM
TGI (UO-31 renal): > 100 µM
TGI (NCI-H460 lung): > 100 µM
TGI (SK-MEL-28 melanoma): > 100 µM
TGI (HT29 colon): > 100 µM
TGI (SK-MEL-5 melanoma): > 100 µM
TGI (UACC-257 melanoma): > 100 µM
TGI (SN12C renal): > 100 µM
TGI (U251 CNS): > 100 µM
TGI (LOX IMVI melanoma): > 100 µM
TGI (UACC-62 melanoma): > 100 µM

Brc1cc2c(cc1C1SCCS1)OCO2
TGI (CCRF-CEM leukemia): > 100 µM
TGI (SK-OV-3 ovarian): > 100 µM
TGI (SR leukemia): > 100 µM
TGI (786-0 renal): > 100 µM
TGI (M14 melanoma): > 100 µM
TGI (IGROV1 ovarian): > 100 µM
TGI (OVCAR-5 ovarian): > 100 µM
TGI (UO-31 renal): > 100 µM
TGI (NCI-H460 lung): > 100 µM
TGI (SK-MEL-28 melanoma): > 100 µM
TGI (HT29 colon): > 100 µM
TGI (SK-MEL-5 melanoma): > 100 µM
TGI (UACC-257 melanoma): > 100 µM
TGI (U251 CNS): > 100 µM
TGI (LOX IMVI melanoma): > 100 µM
TGI (UACC-62 melanoma): > 100 µM

CSc1nc(SC)c2ncn(C3CC(Oc4ccc(C)cc4)C(COc4ccc(C)cc4)O3)c2n1 (configuration not stated)
TGI (BT-549 breast): > 100 µM
TGI (CCRF-CEM leukemia): > 100 µM
TGI (SK-OV-3 ovarian): > 100 µM
TGI (MCF7 breast): > 100 µM
TGI (786-0 renal): > 100 µM
TGI (M14 melanoma): > 100 µM
TGI (IGROV1 ovarian): > 100 µM
TGI (OVCAR-5 ovarian): > 100 µM
TGI (UO-31 renal): 7.61 µM
TGI (NCI-H460 lung): > 100 µM
TGI (SK-MEL-28 melanoma): > 100 µM
TGI (HT29 colon): > 100 µM
TGI (SK-MEL-5 melanoma): > 100 µM
TGI (UACC-257 melanoma): > 100 µM
TGI (SN12C renal): > 100 µM
TGI (U251 CNS): > 100 µM
TGI (LOX IMVI melanoma): > 100 µM
TGI (UACC-62 melanoma): > 100 µM

[O-][n+]1onc2c1/C(=N/O)CCC2
TGI (CCRF-CEM leukemia): > 100 µM
TGI (SK-OV-3 ovarian): > 100 µM
TGI (SR leukemia): > 100 µM
TGI (MCF7 breast): > 100 µM
TGI (786-0 renal): > 100 µM
TGI (M14 melanoma): > 100 µM
TGI (IGROV1 ovarian): > 100 µM
TGI (OVCAR-5 ovarian): > 100 µM
TGI (UO-31 renal): > 100 µM
TGI (NCI-H460 lung): > 100 µM
TGI (SK-MEL-28 melanoma): > 100 µM
TGI (HT29 colon): > 100 µM
TGI (SK-MEL-5 melanoma): > 100 µM
TGI (UACC-257 melanoma): > 100 µM
TGI (SN12C renal): > 100 µM
TGI (LOX IMVI melanoma): > 100 µM
TGI (UACC-62 melanoma): > 100 µM

O=C(COc1ccc(Cl)c(Cl)c1)N(Cc1ccccc1)Cc1ccc[n+](Cc2ccc(Cl)cc2S(=O)(=O)F)c1
TGI (SK-OV-3 ovarian): > 100 µM
TGI (SR leukemia): 52.4 µM
TGI (MCF7 breast): > 100 µM
TGI (786-0 renal): > 100 µM
TGI (M14 melanoma): > 100 µM
TGI (IGROV1 ovarian): > 100 µM
TGI (OVCAR-5 ovarian): > 100 µM
TGI (UO-31 renal): > 100 µM
TGI (NCI-H460 lung): > 100 µM
TGI (SK-MEL-28 melanoma): > 100 µM
TGI (HT29 colon): > 100 µM
TGI (SK-MEL-5 melanoma): 64.7 µM
TGI (UACC-257 melanoma): > 100 µM
TGI (SN12C renal): > 100 µM
TGI (U251 CNS): > 100 µM
TGI (UACC-62 melanoma): > 100 µM

CCOP(=O)(OCC)[C@H]1OC(C)(C)O[C@@H]1CO
TGI (BT-549 breast): > 100 µM
TGI (CCRF-CEM leukemia): > 100 µM
TGI (SK-OV-3 ovarian): > 100 µM
TGI (MCF7 breast): > 100 µM
TGI (786-0 renal): > 100 µM
TGI (M14 melanoma): > 100 µM
TGI (IGROV1 ovarian): > 100 µM
TGI (OVCAR-5 ovarian): > 100 µM
TGI (NCI-H460 lung): > 100 µM
TGI (SK-MEL-28 melanoma): > 100 µM
TGI (HT29 colon): > 100 µM
TGI (SK-MEL-5 melanoma): > 100 µM
TGI (UACC-257 melanoma): > 100 µM
TGI (SN12C renal): > 100 µM
TGI (U251 CNS): > 100 µM
TGI (LOX IMVI melanoma): > 100 µM
TGI (UACC-62 melanoma): > 100 µM

CCOC(=O)C1=CC(C)(C(=O)OCC)Nc2c(nc(OC)[nH]c2=O)N1 (configuration not stated)
TGI (CCRF-CEM leukemia): > 10 µM
TGI (SK-OV-3 ovarian): > 10 µM
TGI (MCF7 breast): > 10 µM
TGI (786-0 renal): > 10 µM
TGI (M14 melanoma): > 10 µM
TGI (IGROV1 ovarian): > 10 µM
TGI (OVCAR-5 ovarian): > 10 µM
TGI (UO-31 renal): > 10 µM
TGI (NCI-H460 lung): > 10 µM
TGI (SK-MEL-28 melanoma): > 10 µM
TGI (HT29 colon): > 10 µM
TGI (SK-MEL-5 melanoma): > 10 µM
TGI (UACC-257 melanoma): > 10 µM
TGI (SN12C renal): > 10 µM
TGI (U251 CNS): > 10 µM
TGI (LOX IMVI melanoma): > 10 µM

COC(=O)C1C2CC3C1C3C2C(=O)OC (configuration not stated)
TGI (CCRF-CEM leukemia): > 100 µM
TGI (SK-OV-3 ovarian): > 100 µM
TGI (MCF7 breast): > 100 µM
TGI (786-0 renal): > 100 µM
TGI (M14 melanoma): > 100 µM
TGI (IGROV1 ovarian): > 100 µM
TGI (OVCAR-5 ovarian): > 100 µM
TGI (UO-31 renal): > 100 µM
TGI (NCI-H460 lung): > 100 µM
TGI (SK-MEL-28 melanoma): > 100 µM
TGI (HT29 colon): > 100 µM
TGI (SK-MEL-5 melanoma): > 100 µM
TGI (UACC-257 melanoma): > 100 µM
TGI (SN12C renal): > 100 µM
TGI (U251 CNS): > 100 µM
TGI (LOX IMVI melanoma): > 100 µM
TGI (UACC-62 melanoma): > 100 µM

O=C1C(=Cc2cccc(O)c2)N=C(c2ccccc2)N1n1c(-c2ccccc2)nc2ccccc2c1=O
TGI (CCRF-CEM leukemia): 75.5 µM
TGI (SK-OV-3 ovarian): > 100 µM
TGI (SR leukemia): 60.5 µM
TGI (786-0 renal): > 100 µM
TGI (M14 melanoma): > 100 µM
TGI (IGROV1 ovarian): 61.1 µM
TGI (OVCAR-5 ovarian): 78.3 µM
TGI (UO-31 renal): 61.1 µM
TGI (NCI-H460 lung): 59.8 µM
TGI (SK-MEL-28 melanoma): > 100 µM
TGI (HT29 colon): 85 µM
TGI (SK-MEL-5 melanoma): 48 µM
TGI (UACC-257 melanoma): 81.9 µM
TGI (SN12C renal): > 100 µM
TGI (U251 CNS): > 100 µM
TGI (LOX IMVI melanoma): 52.5 µM
TGI (UACC-62 melanoma): 50.9 µM

O=c1c2cc([N+](=O)[O-])ccc2n2n1CCCC2
TGI (CCRF-CEM leukemia): > 100 µM
TGI (SK-OV-3 ovarian): > 100 µM
TGI (SR leukemia): > 100 µM
TGI (786-0 renal): > 100 µM
TGI (M14 melanoma): > 100 µM
TGI (IGROV1 ovarian): > 100 µM
TGI (OVCAR-5 ovarian): > 100 µM
TGI (UO-31 renal): > 100 µM
TGI (NCI-H460 lung): > 100 µM
TGI (SK-MEL-28 melanoma): > 100 µM
TGI (HT29 colon): > 100 µM
TGI (SK-MEL-5 melanoma): > 100 µM
TGI (UACC-257 melanoma): > 100 µM
TGI (SN12C renal): > 100 µM
TGI (U251 CNS): > 100 µM
TGI (LOX IMVI melanoma): > 100 µM
TGI (UACC-62 melanoma): > 100 µM
